Experimental findings from US11939583B2, “Method of producing autotrophic organisms with altered photorespiration and improved CO2 fixation” (Max-Planck-Gesellschaft zur Förderung der Wissenschaften …, priority 2018, dated 2024) are described below.

Data set [1] concerns the target T1, aspartate-glyoxylate aminotransferase (AGAT) (Paracoccus denitrificans, UniProt A1B8Z3).
T1 construct: His-tag (N); made in house; host or cells: E. coli BL21 AI
T1 sequence (A1B8Z3 1-396): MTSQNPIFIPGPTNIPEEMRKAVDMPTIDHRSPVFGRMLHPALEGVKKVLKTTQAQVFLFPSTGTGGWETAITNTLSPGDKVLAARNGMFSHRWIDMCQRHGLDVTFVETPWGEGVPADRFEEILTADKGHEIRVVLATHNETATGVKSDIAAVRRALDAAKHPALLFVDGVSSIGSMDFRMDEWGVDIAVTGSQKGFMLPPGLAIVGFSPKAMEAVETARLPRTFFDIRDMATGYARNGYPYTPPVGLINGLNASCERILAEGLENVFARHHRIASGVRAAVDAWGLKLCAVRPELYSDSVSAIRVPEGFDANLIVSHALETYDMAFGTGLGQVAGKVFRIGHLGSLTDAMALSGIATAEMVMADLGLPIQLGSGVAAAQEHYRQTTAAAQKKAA
In words: Enzyme assay, kinetic parameters of AGAT. The class given is biochemical, Paracoccus denitrificans DSM 413. The conditions noted are these: 30° C., pH 7.5, co-substrate fixed (20 mM L-aspartate, 5 mM glyoxylate, 20 mM oxaloacetate or 30 mM glycine); for Km: read-out: app. KM. The procedure:
(§1) In all enzyme assays, the oxidation of NADH or NADPH was followed at 340 nm or 360 nm on a Cary 60 UV-Vis photospectrometer (Agilent, Santa Clara, USA) in quartz cuvettes with a path length of 1 mm or 10 mm (Hellma Optik GmbH, Jena, Germany).
(§2) The enzyme assay to determine the kinetic parameters of AGAT with glyoxylate and L-aspartate as substrates was performed at 30° C. in a total volume of 300 μl. The reaction mixture contained 100 mM potassium phosphate buffer pH 7.5, 0.1 mM PLP, 0.2 mM NADH, varying amounts of the respective substrates, and 32 nM AGAT. Mdh was added in excess as coupling enzyme to convert oxaloacetate into malate. Kinetics for glyoxylate were measured with 20 mM L-aspartate; kinetics for L-aspartate were measured with 5 mM glyoxylate. To determine the kinetic parameters with oxaloacetate and glycine as substrates, the same assay mixture was used and GhrA was added in excess as coupling enzyme to convert glyoxylate into glycolate. […] To determine the kinetic parameters with L-serine or L-glutamate and glyoxylate as substrates, the same assay mixture was used and BHAD, BHAA, and Mdh were added in excess as coupling enzymes. Kinetics for L-serine and L-glutamate were measured with 5 mM glyoxylate.

In data set [2] the target is T2, iminosuccinate reductase (ISRed) (Paracoccus denitrificans, UniProt A1B8Z0).
T2 construct: His-tag (N); made in house; host or cells: E. coli BL21 AI
The data set can be described thus: Enzyme assay, apparent kinetic parameters of ISRed. Format: biochemical, Paracoccus denitrificans DSM 413. Conditions: 30° C.; for Km: pH 7.5, cofactors measured with 2 mM (2R,3S)-β-hydroxyaspartate and BHAD, read-out: app. KM. The method, then:
as §1
The enzyme assay to determine the apparent kinetic parameters of ISRed was performed at 30° C. in a total volume of 250 μL. The reaction mixture contained 100 mM potassium phosphate buffer pH 7.5, 0.2 mM NADH, 0.1 mM PLP, varying amounts of (2R,3S)-β-hydroxyaspartate, and appropriate amounts of the enzymes BHAD and ISRed. Kinetics for iminosuccinate were measured with 15 nM ISRed, and appropriate amounts of (2R,3S)-β-hydroxyaspartate and BHAD to generate the desired concentrations of iminosuccinate at the onset of the reaction. Kinetics for NADH and NADPH were measured with 2 mM (2R,3S)-β-hydroxyaspartate, 214 nM BHAD, 28 nM ISRed, and varying amounts of the respective cofactor.

The subject of data set [3] is expression levels of enzymes of the BHAP. The data set can be described thus: Whole-cell shotgun proteomics, glycolate-grown vs. acetate-grown cells. The class given is cell-based, P. denitrificans. The conditions noted are these: cells grown on 60 mM glycolate compared to 60 mM acetate, FIG. 4. The procedure:
To acquire the proteome of P. denitrificans growing on different carbon sources, 20 mL cultures were grown to mid-exponential phase (OD600 ˜0.5) in minimal medium supplemented with 60 mM acetate or 60 mM glycolate. 4 replicate cultures were grown for each carbon source. Main cultures were inoculated from precultures grown in the same medium in a 1:1,000 dilution. Cultures were harvested by centrifugation at 4,000× g and 4° C. for 15 min. Supernatant was discarded and pellets were washed in 40 mL phosphate buffered saline (PBS; 137 mM NaCl, 2.7 mM KCl, 10 mM Na2HPO4, 1.8 mM KH2PO4, pH 7.4). […] Cell pellets in Eppendorf tubes were snap-frozen in liquid nitrogen and stored at −80° C. until they were used for the preparation of samples for LC-MS analysis and label-free quantification.
For whole cell lysis, cell pellets were first resuspended in 200 μL NH4HCO3 (100 mM supplemented with 5% SDS). […] Protein concentration in samples was determined via Pierce™ BCA assay (Thermo Scientific). […] Peptide mixes were recovered in 2% DMSO and then in 0.5% trifluoracetic acid (TFA) and analyzed via LC-MS on an electrospray ion source-connected Thermo QExactive Plus mass spectrometer (Thermo Scientific). […] Label-free data quantification was performed according to (Nature 2011, 473, 337; Proteomics 2013, 13, 2567; and J Proteome Res 2015, 14, 4472). […]

Data set [4] has as its target T3, β-hydroxyaspartate aldolase (BHAA) (Paracoccus denitrificans, UniProt A1B8Z1).
T3 construct: His-tag (N); made in house; host or cells: E. coli BL21 AI
T3 sequence (A1B8Z1 1-387): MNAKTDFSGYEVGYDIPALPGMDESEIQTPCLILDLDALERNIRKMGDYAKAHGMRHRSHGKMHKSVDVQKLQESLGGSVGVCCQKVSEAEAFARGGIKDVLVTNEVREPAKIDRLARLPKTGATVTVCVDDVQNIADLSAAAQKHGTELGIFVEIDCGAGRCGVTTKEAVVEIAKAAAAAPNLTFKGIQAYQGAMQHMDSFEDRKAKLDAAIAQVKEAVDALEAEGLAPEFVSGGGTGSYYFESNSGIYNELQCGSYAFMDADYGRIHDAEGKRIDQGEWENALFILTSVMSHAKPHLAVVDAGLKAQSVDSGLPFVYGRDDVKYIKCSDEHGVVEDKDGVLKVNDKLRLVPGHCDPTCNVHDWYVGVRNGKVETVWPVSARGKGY
In words: Enzyme assay, kinetic parameters of BHAA. Format: biochemical, Paracoccus denitrificans DSM 413. The conditions noted are these: 30° C., pH 7.5, glycine with 5 mM glyoxylate, glyoxylate with 20 mM glycine. The procedure:
as §1
The reaction mixture contained 100 mM potassium phosphate buffer pH 7.5, 0.1 mM PLP, 0.2 mM NADH, 0.5 mM MgCl2, varying amounts of the respective substrates, and 4 nM BHAA. BHAD and ISRed were added in excess as coupling enzymes. […] To determine the kinetic parameters with (2R,3S)-β-hydroxyaspartate as substrate, the same assay mixture was used and GhrA was added in excess as coupling enzyme to convert glyoxylate into glycolate. To determine the kinetic parameters with D-threonine as substrate, the same assay mixture was used and alcohol dehydrogenase from Saccharomyces cerevisiae (Sigma-Aldrich, St. Louis, USA) was added in excess as coupling enzyme to convert acetaldehyde into ethanol.

Data set [5] has as its target T4, β-hydroxyaspartate dehydratase (BHAD) (Paracoccus denitrificans, UniProt A1B8Z2).
T4 construct: His-tag (N); made in house; host or cells: E. coli BL21 AI
The data set can be described thus: Enzyme assay, kinetic parameters of BHAD. Conditions: 30° C., pH 7.5, ISRed as coupling enzyme. The class given is biochemical, Paracoccus denitrificans DSM 413. The method, then:
as §1
The enzyme assay to determine the kinetic parameters of BHAD was performed at 30° C. in a total volume of 300 μl. The reaction mixture contained 100 mM phosphate buffer pH 7.5, 0.1 mM PLP, 0.2 mM NADH, varying amounts of the substrate (2R,35)-β-hydroxyaspartate, and 29 nM BHAD. ISRed was added in excess as coupling enzyme to convert iminosuccinate into L-aspartate. (2R,3S)-β-Hydroxyaspartate was custom-synthesized by NewChem (Newcastle upon Tyne, United Kingdom), and was determined to be >95% pure by NMR analysis.

The next data set relates to Pbhc-BhcR complex. In words: Electrophoretic mobility shift assay, effect of glyoxylate on complex formation. Format: binding, P. denitrificans DSM 413. The conditions noted are these: increasing concentrations of glyoxylate (0.01-1 mM), EMSA, FIG. 5. The text has this:
Fluorescently labeled DNA fragments for electrophoretic mobility shift assays (EMSA) were generated by PCR from genomic DNA of P. denitrificans DSM 413. For the Pbhc regulatory region, primers Pbhc_fw and Pbhc_rev-dye were used to generate a 238-bp fragment containing the putative Pbhc promoter. The primers AGAT-Fw and AGAT_rev-dye were used to generate a 255-bp fragment containing a fragment of the AGAT gene as negative controle. Pbhc rev dye and AGAT rev dye were 5′-labelled with the Dyomics 781 fluorescent dye (Microsynth AG, Balgach, Switzerland). Binding reactions between the DNA fragments (0.025 pmol), various amounts of the purified protein BhcR (400x/2,000x/4,000x/10,000x/20,000x/40,000x molar excess), and various concentrations of glyoxylate (0.01/0.05/0.1/0.2/0.5/1 mM final concentration) were performed in buffer A (20 mM potassium phosphate pH 7.0, 1 mM DTT, 5 mM MgCl2, 50 mM KCl, 15 μg mL^−1 bovine serum albumin, 50 μg mL^−1 herring sperm DNA, 5% v/v glycerol, 0.1% Tween20) in a total volume of 20 μL. After incubation of the reaction mixtures at 37° C. for 20 min, the samples were loaded onto a native 5% polyacrylamide gel and electrophoretically separated at 110 V for 60 min. BhcR:DNA-interactions were detected using an Odyssey FC Imaging System (LI-COR Biosciences, Lincoln, USA).
(Mobility shift assays separate free from complexed probe on a gel.)

Substrate in data set [6]: NCC(=O)O
The data set can be described thus: purified protein, by the assay type. The conditions noted are these: other: enzyme AGAT, 30° C., pH 7.5, co-substrate fixed (20 mM L-aspartate, 5 mM glyoxylate, 20 mM oxaloacetate or 30 mM glycine).

Substrate in data set [7]: N[C@@H](CO)C(=O)O
The data set can be described thus: Enzyme assay, kinetic parameters of AGAT. The class given is biochemical, Paracoccus denitrificans DSM 413. The conditions noted are these: other: enzyme AGAT, 30° C., pH 7.5, co-substrate fixed (20 mM L-aspartate, 5 mM glyoxylate, 20 mM oxaloacetate or 30 mM glycine). The procedure: as §1, §2

Substrate in data set [8]: O=C(O)CC(=O)C(=O)O
The data set can be described thus: Enzyme assay, kinetic parameters of AGAT. The class given is biochemical, Paracoccus denitrificans DSM 413. The conditions noted are these: other: enzyme AGAT, 30° C., pH 7.5, co-substrate fixed (20 mM L-aspartate, 5 mM glyoxylate, 20 mM oxaloacetate or 30 mM glycine). The method, then:
as §1, §2

Substrate in data set [9]: O=CC(=O)O
In words: Enzyme assay, kinetic parameters of AGAT. Format: biochemical, Paracoccus denitrificans DSM 413. Conditions: other: enzyme AGAT, 30° C., pH 7.5, co-substrate fixed (20 mM L-aspartate, 5 mM glyoxylate, 20 mM oxaloacetate or 30 mM glycine). The method, then: as §1, §2

In the case of `N[C@@H](CCC(=O)O)C(=O)O` [L-Glutamate], in data set [1], the app. kcat came out at 5.03 ± 0.26 s⁻¹ and the Km came out at 20600 ± 2330 µM.

As for `N=C(CC(=O)O)C(=O)O` [Iminosuccinate], in data set [2], the Km was determined as 88 ± 10 µM. For the same molecule, the app. kcat in data set [2] (pH 7.5, iminosuccinate generated from (2R,3S)-β-hydroxyaspartate by BHAD) came to 201.04 ± 10.20 s⁻¹.

`N[C@@H](CC(=O)O)C(=O)O` [L-Aspartate]: in data set [1], the app. kcat amounted to 56.36 ± 0.73 s⁻¹ and the Km was 2510 ± 100 µM.

On to `NC(=O)C1=CN([C@@H]2O[C@H](COP(=O)(O)OP(=O)(O)OC[C@H]3O[C@@H](n4cnc5c(N)ncnc54)[C@H](O)[C@@H]3O)[C@@H](O)[C@H]2O)C=CC1` [NADH], for which the Michaelis constant (Km) in data set [2] came to 23 ± 3 µM.

Consider NADPH, for which the Km in [2] amounted to 330 ± 50 µM.

Consider `O=C(O)CO` [glycolate], for which the “expression of all four enzymes of the BHAP” value in [3] is recorded as “strongly increased expression”.

`N[C@@H](C(=O)O)[C@H](O)C(=O)O` [(2R,3S)-β-hydroxyaspartate]: the app. kcat in [4] came to 33.11 ± 1.29 s⁻¹; in data set [5] it was 35.01 ± 0.82 s⁻¹. Moreover, the Km in data set [4] (read-out: app. KM) turned out to be 280 ± 30 µM; in data set [5] (read-out: app. KM), 200 ± 20 µM.

In the case of `O=CC(=O)O` [Glyoxylate], in the data set with Pbhc-BhcR complex, the “effect on binding of BHAR to the promoter region” value is recorded as “binding was decreased”.

B1: aspartate-glyoxylate aminotransferase (AGAT) (Paracoccus denitrificans PD1222) (protein)
chain: T1 sequence (A1B8Z3 1-396)
notes: His-tag (N); made in house; host or cells: E. coli BL21 AI
In the case of B1, the Km in [6] worked out at 9520 ± 400 µM; in data set [7] it was 2100 ± 240 µM; in [8] it was 2900 ± 270 µM; in data set [9], 430 ± 20 µM. Moreover, the turnover number (kcat) in data set [6] stood at 0.76 s⁻¹; in [7] it was 8.82 ± 0.31 s⁻¹; in data set [8], 0.76 ± 0.02 s⁻¹; in data set [9], 58.1 ± 0.82 s⁻¹. For the same molecule, the specificity constant (kcat/Km) in data set [6] was 79.7 M⁻¹ s⁻¹; in data set [7], 4200 M⁻¹ s⁻¹; in [8], 262 M⁻¹ s⁻¹; in [9], 134000 M⁻¹ s⁻¹.

The term Km denotes the substrate concentration at which the rate is half of its maximum. In general, kcat refers to the number of substrate molecules converted per active site and unit of time at saturation. By kcat/Km is commonly meant the turnover number divided by the Michaelis constant.
